# Tests used:
# S. aureus (ATCC 25923) = assay: Microdilution susceptibility assay (MIC); assay type: cell-based; details: Staphylococcus aureus, ATCC25923
# Protocol: (§1) Compounds 1–10 were screened for their antimicrobial activity against gram-negative bacteria, gram-positive bacteria, and yeasts, listed in Table 1. Bacteria were grown in Mueller-Hinton Broth and yeasts were grown in Sabouraud Dextrose Broth (SDB) during experiments. Overnight cultures were prepared routinely by subculturing of stock culture onto Mueller-Hinton Agar for bacteria and Sabouraud Dextrose Agar for yeasts.
# (§2) Microdilution susceptibility assay was used for the determination of antibacterial and anticandidal efficacy of compounds 1–10. Chloramphenicol and ketoconazole were used as positive controls for bacteria and yeasts, respectively. All experiments were designed according to the Clinical Laboratory Standards Institute (CLSI). All chemicals were dissolved in dimethyl sulfoxide (DMSO) to obtain stock solution (10 mg/mL). Two-fold serial dilutions (800, 400, 200...0.78 µg/mL) of the compounds were prepared from stock solutions with dH2O. 100 µL of each solution was transferred to 96-well microtiter plates and 100 µL of 10^6 CFU/mL of bacteria and 2 × 10^3 of CFU/mL yeast were added to related wells. As negative controls, wells including microorganisms without agents and wells including agents without microorganisms were used. The plates were kept at 35 °C for 18–20 h and the growth was determined with resazurin (20 mg/mL). Assays were carried out in triplicate.
# E. faecalis (ATCC 51299) [1] = assay: Microdilution susceptibility assay (MIC); assay type: cell-based; details: Enterococcus faecalis, ATCC51299
# Protocol: as §1, §2
# [2] = system: K. pneumoniae (ATCC 700603); assay: Microdilution susceptibility assay (MIC); assay type: cell-based; details: Klebsiella pneumoniae, ATCC700603
# Protocol: as §1, §2
# E. faecalis (ATCC 29212) [3] = assay: Microdilution susceptibility assay (MIC); assay type: cell-based; details: Enterococcus faecalis, ATCC29212
# Protocol: as §1, §2
# E. coli (ATCC 25922) = assay: Microdilution susceptibility assay (MIC); assay type: cell-based; details: Escherichia coli, ATCC25922
# Protocol: as §1, §2
# C6 rat glioma cell line = assay: MTT assay; assay type: cell-based; details: for IC50: Rattus norvegicus, C6
# Protocol: (§3) The anticancer effects of compounds 1–10 on A549 human lung adenocarcinoma (ATCC® CCL-185™), HepG2 human hepatocellular carcinoma (ATCC® HB-8065™), and C6 rat glioma (ATCC® CCL107™) cell lines were assessed using 3-(4,5-Dimethylthiazol-2-yl)-2,5-diphenyltetrazolium bromide (MTT) assay, whereas the selectivity of compounds 1–10 was tested using NIH/3T3 mouse embryonic fibroblast cell line (ATCC® CRL-1658™, London, UK). All cell lines were incubated according to the supplier’s recommendations. The cells were seeded as 1 × 10^4 cells into each well of the 96-well plates. MTT assay was performed as previously described. The compounds were tested between the concentrations equal to 1 mM and 0.000316 mM (1.0, 0.316, 0.10, 0.0316, 0.01, 0.00316, 0.001, 0.000316 mM). Stock solutions of compounds were prepared in dimethyl sulfoxide (DMSO) and further dilutions were made with fresh culture medium. The final DMSO concentration was under 1% [34] and cisplatin was used as a positive control. Inhibition % was calculated for each concentration according to the formula below, and IC50 values were determined by plotting a dose–response curve of inhibition % versus compound concentrations tested. All experiments were performed in quadruplicate.Inhibition % = 100 − [(ODtest compound − ODblank/ODsolvent control − ODblank)] × 100(1)
# [4] = system: NIH/3T3 mouse embryonic fibroblast cell line; assay: MTT assay; assay type: cell-based; details: for IC50: Mus musculus, NIH3T3, healthy cells for selectivity
# Protocol: as §3
# [5] = system: A549 human lung adenocarcinoma cell line; assay: MTT assay; assay type: cell-based; details: for IC50: Homo sapiens, A549
# Protocol: as §3
# [6] = system: HepG2 human hepatocellular carcinoma cell line; assay: MTT assay; assay type: cell-based; details: for IC50: Homo sapiens, HepG2
# Protocol: as §3
# C. albicans (ATCC 90028) = assay: Microdilution susceptibility assay (MIC); assay type: cell-based; details: Candida albicans, ATCC90028
# Protocol: as §1, §2
# C. glabrata (ATCC 90030) = assay: Microdilution susceptibility assay (MIC); assay type: cell-based, Candida glabrata; details: Nakaseomyces glabratus, ATCC90030
# Protocol: as §1, §2
# C. krusei (ATCC 6258) = assay: Microdilution susceptibility assay (MIC); assay type: cell-based, Candida krusei; details: Pichia kudriavzevii, ATCC6258
# Protocol: as §1, §2
# E. faecalis (ATCC 29212) [7] = assay: ATP luminescence microbial cell viability assay; assay type: cell-based, Enterococcus faecalis; details: 24 h treatment, result in words
# Protocol: (§4) A model from BioTek Instruments Inc. combined with a BacTiter-Glo^TM Microbial Cell Viability assay (Promega Corp., Madison, WI, USA) was used to provide a sensitive and rapid method for determining the number of viable microbial cells in culture based on quantitation of the ATP present. […] After incubation, cultures were added into the wells (final concentration of bacteria was 5 × 10^5 CFU/mL and 2.5 × 10^6 CFU/mL for yeasts). After adding the BacTiter reagent, incubation time for bacteria and yeasts was 5 min and 15 min, respectively.
# (§5) The assay generates a “glow-type” luminescent signal, produced by the luciferase reaction. Briefly, after chemicals and strains were incubated for 24 h, 100 µL of the culture was taken from each well and mixed with the same volume of the BacTiter-Glo™ reagent in a white, opaque-walled microtiter plate. Control wells containing medium without cells were prepared to obtain a value for background luminescence. Cells without compound were used as an ATP-positive control. The microplates were further incubated under agitation for 7 min. Bioluminescence was recorded in a multi-detection microplate reader (BioTek Synergy 2 Multi-Mode Microplate Reader, BioTek Instruments, Winooski, VT, USA). In Figure 3, results were given as percentage of untreated control, which is set at 100%. Experiments were performed in triplicate and each sample was measured in four replicates.
# [8] = system: C. parapsilosis (ATCC 22019); assay: Microdilution susceptibility assay (MIC); assay type: cell-based, Candida parapsilosis; details: Lodderomyces parapsilosis, ATCC22019
# Protocol: as §1, §2
# E. faecalis (ATCC 51299) [9] = assay: ATP luminescence microbial cell viability assay; assay type: cell-based, Enterococcus faecalis; details: 24 h treatment, result in words
# Protocol: as §4, §5
# C. glabrata = assay: ATP luminescence microbial cell viability assay; assay type: cell-based, Candida glabrata; details: 24 h treatment, result in words
# Protocol: as §4, §5
# C. krusei cells = assay: Flow cytometry live/dead analysis (TO/PI); assay type: cell-based, Candida krusei; details: 25 µg/mL, 4 h
# Source text: In order to investigate the effects of compounds 7 and 9 on the integrity of C. krusei cells, flow cytometry was used with BD cell viability kits. Live cells are impermeable to dyes such as PI since they have intact membranes. TO is a permeant dye and enters live and dead cells to varying degrees. The fluorescent signal from TO in viable cells allows their enumeration, even when debris in the cell preparation contaminates a scatter gate around the cells. Thus, the combination of these two dyes provides a rapid and reliable method for discriminating live and dead eukaryotic cells, including yeasts. All steps were performed according to manufacturers’ recommendations. Briefly, Candida cells were cultured at 35 °C in SDB until late log phase. The cells were centrifuged and washed with phosphate-buffered saline (PBS) at pH = 7.0. Suspensions containing 2 × 10^3 cells/mL were incubated with compounds 7 and 9, and ketoconazole as a reference drug, for 4 h at 35 °C, with shaking (200 r.p.m.). […] Suspensions of treated and untreated cells were incubated for 30 min in the presence of 2 µL of PI and 2 µL of TO, in the dark, at room temperature. The cell suspensions were analysed in a BD Accuri C6 flow cytometer (Becton-Dickinson, Mansfield, MA, USA). The cell scattergram (forward scatter: FS, side scatter: SS), the autofluorescence (without fluorocrome), and the intensity of fluorescence at FL1 (green fluorescence, 525 nm) and FL2 (red fluorescence, 620 nm) were recorded using a logarithmic scale.
Compound,MIC (S. aureus (ATCC 25923)) [µg/mL],MIC (E. faecalis (ATCC 51299) [1]) [µg/mL],MIC [2] [µg/mL],MIC (E. faecalis (ATCC 29212) [3]) [µg/mL],MIC (E. coli (ATCC 25922)) [µg/mL],melting point [°C],MIC (C. albicans (ATCC 90028)) [µg/mL],MIC (C. glabrata (ATCC 90030)) [µg/mL],MIC (C. krusei (ATCC 6258)) [µg/mL],MIC [8] [µg/mL],IC50 (C6 rat glioma cell line) [µg/mL],IC50 [4] [µg/mL],IC50 [5] [µg/mL],IC50 [6] [µg/mL],further results
"O=C(N[C@H](CO)[C@H](O)c1ccc([N+](=O)[O-])cc1)C(Cl)Cl [Chloramphenicol, reference compound]",25,100,50,50,25,,,,,,,,,,
"N.N.[Cl][Pt][Cl] [Cisplatin, reference compound]",,,,,,,,,,,,,,,IC50 C6 Cell Line (C6 rat glioma cell line): 46 µg/mL; IC50 NIH/3T3 Cell Line ([4]; healthy cells for selectivity): >300 µg/mL; IC50 A549 Cell Line [5]: 19 µg/mL; IC50 HepG2 Cell Line [6]: 38 µg/mL
"Cn1cccc1C(=O)C=Cc1ccc(-c2ccc([N+](=O)[O-])cc2)o1 [Compound 1, 1-(1-Methyl-1H-pyrrol-2-yl)-3-(5-(4-nitrophenyl)furan-2-yl)prop-2-en-1-one]",200,200,200,100,100,179 to 181,100,200,200,100,84,109,0.3,322,antimicrobial activity in ATP bioluminescence assay (E. faecalis (ATCC 29212) [7]): sensitive
"Cn1cccc1C(=O)C=Cc1ccc(-c2cccc([N+](=O)[O-])c2)o1 [Compound 2, 1-(1-Methyl-1H-pyrrol-2-yl)-3-(5-(3-nitrophenyl)furan-2-yl)prop-2-en-1-one]",200,100,200,100,100,123 to 124,100,100,100,100,258,> 322,322,277,antimicrobial activity in ATP bioluminescence assay (E. faecalis (ATCC 51299) [9]): antimicrobial activity close to chloramphenicol; antimicrobial activity in ATP bioluminescence assay (E. faecalis (ATCC 29212) [7]): sensitive
"Cn1cccc1C(=O)C=Cc1ccc(-c2ccc(Cl)cc2[N+](=O)[O-])o1 [Compound 4, 1-(1-Methyl-1H-pyrrol-2-yl)-3-(5-(2-nitro-4-chlorophenyl)furan-2-yl)prop-2-en-1-one]",100,200,100,200,100,133 to 134,200,100,200,50,> 357,36,> 357,100,antifungal activity in ATP bioluminescence assay (C. glabrata): antifungal activity close to ketoconazole
"Cn1cccc1C(=O)C=Cc1ccc(-c2ccccc2Cl)o1 [Compound 5, 1-(1-Methyl-1H-pyrrol-2-yl)-3-(5-(2-chlorophenyl)furan-2-yl)prop-2-en-1-one]",400,200,200,200,400,95 to 96,200,200,200,100,> 311,45,311,31,
"Cn1cccc1C(=O)C=Cc1ccc(-c2cccc(Cl)c2)o1 [Compound 6, 1-(1-Methyl-1H-pyrrol-2-yl)-3-(5-(3-chlorophenyl)furan-2-yl)prop-2-en-1-one]",200,200,200,200,100,121 to 122,200,200,200,100,103,38,98,98,
"Cn1cccc1C(=O)C=Cc1ccc(-c2ccc(Cl)cc2Cl)o1 [Compound 8, 1-(1-Methyl-1H-pyrrol-2-yl)-3-(5-(2,4-dichlorophenyl)furan-2-yl)prop-2-en-1-one]",400,400,200,200,100,98 to 99,200,100,50,100,90,277,225,106,antifungal activity in ATP bioluminescence assay (C. glabrata): antifungal activity close to ketoconazole
"Cn1cccc1C(=O)C=Cc1ccc(-c2ccc(Cl)c(Cl)c2)o1 [Compound 10, 1-(1-Methyl-1H-pyrrol-2-yl)-3-(5-(3,4-dichlorophenyl)furan-2-yl)prop-2-en-1-one]",200,100,200,400,100,132 to 133,100,200,200,100,100,148,346,100,antimicrobial activity in ATP bioluminescence assay (E. faecalis (ATCC 51299) [9]): antimicrobial activity close to chloramphenicol
"CC(=O)N1CCN(c2ccc(OCC3COC(Cn4ccnc4)(c4ccc(Cl)cc4Cl)O3)cc2)CC1 (centres unmarked) [Ketoconazole, reference compound]",,,,,,,50,100,50,50,,,,,Dead Cell % (C. krusei cells): 18.4%; Live Cell % (C. krusei cells): 81.2%

# From article PMC6149822, “A New Series of Pyrrole-Based Chalcones: Synthesis and Evaluation of Antimicrobial Activity, Cytotoxicity, and Genotoxicity” (Molecules : A Journal of Synthetic Chemistry and Natural …, 2017)
